Assay [1] concerns Selaginella moellendorffii BioDA. Nature of the assay: BioDA enzyme activity with DMSO or herbicide in vitro. It is filed as biochemical. To be noted: Selaginella moellendorcffii BioDAΔMTP. An excerpt:
(§1) A pet-24 plasmid containing a DNA sequence encoding each identified variant mutant of BIO3-BIO1 derived from Arabidopsis thaliana from example 5 above, as shown in Table 13 below and as shown in full in SEQ ID NOs: 15 to 155, codon-optimised for expression in E. coli, with an N-terminal 6×His-tag and thrombin cleavage site and under control of a T7 promoter, and was synthesised by Twist Bioscience, in a similar manner to SEQ ID NO:311. These plasmids were then expressed in E. coli BL21 (DE3) bioA with 50 μg/mL kanamycin and 25 μg/mL chloramphenicol selection. Overnight cultures grown at 37° C. were used to inoculate 8×500 mL AIM in shake flasks at a ratio of 1:100. Cultures were grown at 37° C., 200 rpm for 3.5 hours and then overnight at 20° C. Cells were harvested by centrifugation for 30 minutes at 10 000 g. Cells were stored at −80° C. until extraction. 30 g of cell pellet from was thawed in 120 mL of IMAC buffer A (20 mM HEPES pH7.5, 25 mM imidazole, 500 mM sodium chloride, 0.15 mM pyridoxal phosphate, 0.5 mM TCEP, 1× complete Protease Inhibitor Tablet (Roche)). The resuspension was passed through a cell disrupter at 18 000 PSI and centrifuged at 50 000 g for 25 minutes at 4° C. The His-tagged BIO3-BIO1 protein was purified from the extract supernatant on an AKTA avant chromatography system (Cytiva) using a HisTrap FF column and eluted in IMAC buffer B ((20 mM HEPES pH7.5, 500 mM imidazole, 500 mM sodium chloride, 0.15 mM pyridoxal phosphate, 0.5 mM TCEP) followed by SEC using a HiLoad 26/60 Superdex200 column in SEC buffer (25 mM HEPES pH7.5, 150 mM sodium chloride, 0.15 mM pyridoxal phosphate, 0.5 mM TCEP). Protein concentration was measured and calculated using the absorbance at 280 nm. Extracts were diluted 1 in 4 and 10 uL was analysed by SDS PAGE.
(§2) To measure BIO3-BIO1 mutant enzyme activity in the presence of herbicide, herbicides were incubated with 20 μL of enzyme mix (100 mM EPPS pH 8.6, 0.1 mM pyridoxal phosphate, 0.1 mg/mL BSA, 50 nM BIO3-BIO1 enzyme) for 10 minutes at 20° C. in a well of a 96-well half-area black plate, followed by the addition of 20 μL of substrate mix (final concentration of 100 mM EPPS pH 8.6, 0.1 mM pyridoxal phosphate, 0.1 mg/mL BSA, 100 μM spermidine, 20 μM KAPA, 100 mM NaCO3) and further incubation for 75 minutes at 20° C. The reaction was terminated by the addition of 50 μL of derivatisation mix (final concentration of 250 mM borate NaOH pH 9.4, 3.6 mM o-phthalaldehyde, 7 mM β-mercaptoethanol, 17% (v/v) ethanol, 3.6% (v/v) methanol). The fluorescent product produced by the reaction of DAPA with o-phthalaldehyde and 7 mM β-mercaptoethanol was measured at 470 nm after excitation at 410 nm. The percentage inhibition was calculated as the activity in the presence of one of three concentrations of each herbicide compound A to M (note that the compounds labelled as A to M are identified hereinabove in the relevant section of the description) as a percentage of the activity in DMSO (Table 12 and 13). The percentage activity versus WT was also calculated and is shown in Table 13 and 14 (NT indicates mutation not tested in table 13, note that these mutations are tested at different compound concentrations for compounds L, M and C, and the results are shown in table 14).
(§3) The activity of various wild-type BioDA and variant enzymes was also tested when treated with DMSO or herbicide in vitro.
(§4) Protein of Schizosaccharomyces japonicus BioDA (SEQ ID NO:13), Nannochloropsis gaditana BioDA (SEQ ID NO:3), Selaginella moellendorffii BioDA (SEQ ID NO:319), Quercus robur BioDA (SEQ ID NOA11), Ostreococcus tauri BioDA (SEQ ID NO:9), and the variants of Ostreococcus tauri BioDA A374D, F332A and P407A (SEQ ID Nos:321-323) was prepared using the method in Example 6. BioDA enzyme activity in the presence of herbicide or DMSO in vitro for each of the proteins was assayed according to the enzyme assay method above. The results are shown in Table 26 provided below in the “TABLES” section.

In the next assay the test system is Quercus robur BioDA. The assay is described as above. The format is biochemical. To be noted: Quercus robur BioDAΔMTP.
Excerpt: as §1, §2, §3, §4

Assay [2] has as its system Nannochloropsis gaditana BioDA. The assay is described as above. It is filed as biochemical.
Excerpt: as §1, §2, §3, §4

For a further assay, the system named is Chroococcidiopsis BioA. Nature of the assay: BioA enzyme activity with DMSO or herbicide in vitro. Particulars: spermidine in substrate mix. The format is biochemical, Chroococcidiopsis sp. CCMEE 29.
Excerpt: as §1, §2
Protein of Escherichia coli BioA (SEQ ID NO:159), Pantoea ananatis BioA (SEQ ID NO:167), Streptomyces viridochromogenes BioA (SEQ ID NO:170), Cryptosporidium andersoni BioA (SEQ ID NO:160), Stenotrophomonas maltophilia BioA (SEQ ID NO:171), Chroococcidiopsis BioA (SEQ ID NO:184), Pedobacter hartonius BioA (SEQ ID NO:181), Chitinophaga filiformis BioA (SEQ ID NO:180), Tenacibaculum adriaticum BioA (SEQ ID NO:185) and Bacillus subtilis BioA (SEQ ID NO:166) was prepared using the method in Example 6. BioA enzyme activity in the presence of herbicide or DMSO in vitro for each of the proteins was assayed according to the enzyme assay method in Example 6, except in some reactions spermidine was replaced with 2 mM S-Adenosyl methionine.

With `CCOC(=O)c1nn(-c2ccc3c(c2)OC(F)(F)C(F)(F)O3)c2cccc(C(C)=O)c2c1=O` [Compound A, ethyl 5-acetyl-4-oxo-1-(2,2,3,3-tetrafluoro-1,4-benzodioxin-6-yl)cinnoline-3-carboxylate], the “% Inhibition relative to DMSO treatment” value came to 25% in assay [1] (25 μM), 72% in the assay with Quercus robur BioDA (25 μM), 5% in assay [2] (25 μM) and 0% in the assay on Chroococcidiopsis BioA (25 μM).

Turning to `CC(O)C(N)CCCCC(=O)O.Cl` (stereo not shown) [Compound B, [5-carboxy-1-(1-hydroxyethyl)pentyl]ammonium chloride], the “% Inhibition relative to DMSO treatment” value was 64% in assay [1] (200 μM), 93% in the assay with Quercus robur BioDA (200 μM), 92% in assay [2] (200 μM) and 99% with Chroococcidiopsis BioA (200 μM).

Turning to `CCn1c(C)c(-c2ccc(F)cc2F)c(=O)c(C(=O)O)c1-c1ccc(Cl)c(Cl)c1` [Compound C, 2-(3,4-dichlorophenyl)-5-(2,4-difluorophenyl)-1-ethyl-6-methyl-4-oxo-pyridine-3-carboxylic acid], the “% Inhibition relative to DMSO treatment” value in assay [1] (0.5 μM) is 9%; with Quercus robur BioDA (0.5 μM), 32%; in assay [2] (0.5 μM), 8%; with Chroococcidiopsis BioA (0.5 μM), 2%.

Take `CCn1c(C)c(-c2cc(OC(F)(F)F)ccc2Cl)c(=O)c(C(=O)O)c1-c1ccc(Cl)c(Cl)c1` [Compound D, 5-[2-chloro-5-(trifluoromethoxy)phenyl]-2-(3,4-dichlorophenyl)-1-ethyl-6-methyl-4-oxo-pyridine-3-carboxylic acid]: the “% Inhibition relative to DMSO treatment” value in assay [1] (0.5 μM) is 75%; with Quercus robur BioDA (0.5 μM) it was 88%; in assay [2] (0.5 μM), 14%; in the assay with Chroococcidiopsis BioA (0.5 μM) it was 0%.

Consider `C[C@@H](N)COc1cccc(C(=O)O)n1.Cl.Cl` [Compound E, [(1R)-2-(6-carboxypyridin-1-ium-2-yl)oxy-1-methyl-ethyl]ammonium dichloride], for which the “% Inhibition relative to DMSO treatment” value in assay [1] (200 μM) is given as 69%; with Quercus robur BioDA (200 μM), 96%; in assay [2] (200 μM) it was 66%; in the assay on Chroococcidiopsis BioA (200 μM), 26%.

Take `CCn1c(Cn2ccc(C(F)(F)F)n2)cc(=O)c(C(=O)O)c1-c1ccc(Cl)c(Cl)c1` [Compound L, 2-(3,4-dichlorophenyl)-1-ethyl-4-oxo-6-[[3-(trifluoromethyl)pyrazol-1-yl]methyl]pyridine-3-carboxylic acid]: the “% Inhibition relative to DMSO treatment” value came to 9% in assay [1] (0.5 μM), 83% in the assay with Quercus robur BioDA (0.5 μM), 6% in assay [2] (0.5 μM) and 15% with Chroococcidiopsis BioA (0.5 μM).

Consider `CCn1c(-c2ccc(Cl)c(Cl)c2)c(C(=O)O)c(=O)c2cc(F)ccc21` [Compound M, 2-(3,4-dichlorophenyl)-1-ethyl-6-fluoro-4-oxo-quinoline-3-carboxylic acid], for which the “% Inhibition relative to DMSO treatment” value in assay [1] (0.5 μM) was found to be 0%; in the assay with Quercus robur BioDA (0.5 μM) it was 22%; in assay [2] (0.5 μM), 3%; with Chroococcidiopsis BioA (0.5 μM) it was 10%.

(Values after US20260226493A1, “HERBICIDE RESISTANT PLANTS” (SYNGENTA CROP PROTECTION AG, priority 2023, published 2026).)
